The nature of assay [1]: Binding constant by microcalorimeter (VP-ITC). As to conditions: water/formic acid 1:1 by volume, 1.0 mM host. The procedure:
Distilled water and formic acid were mixed in a ratio of 1:1: by volume. Next, 1.0 mM of cucurbit[5]uril derivative was prepared with the diluted formic acid. 20.0 mM of aqueous solution containing ammonium ions, and positive ions of alkaline metals, such as lithium, sodium and potassium, was prepared. Then, the binding constants of the cucurbit[5]uril derivative with these ions were measured using a microcalorimeter (VP-ITC, manufactured by MicroCal). As a result, the cucurbit[5]uril derivative has a binding constant of 5.4×10^3M^−1 with ammonium ions, 3.3×10^2M^−1 with positive lithium ions, 4.5×10^3M^−1 with positive sodium ions, and 2.6×10^4M^−1 with positive potassium ions. The cucurbit[5]uril derivative can selectively bind with alkali metal ions, as well as with ammonium ions. The result confirms that cucurbituril derivatives can be used as ion sensors.

Assay [2] in a line: Complex formation with anti-cancer drug, drug carrier test (NMR). Type of assay: binding. Conditions: in water. The procedure: The following example is for investigating the function of the cucurbituril derivatives obtained in Synthesis Examples 1 through 10, as a drug carrier. In the following example, cisplatin, an anti-cancer drug, was used.
2.0 mg of Cis-dichloroethylenediamine platinum (II) and 2.0 mg of cucurbit[8]uril were dissolved in water.

A short description of assay [3]: Ternary complex formation, nucleic acid base sensing (NMR). The class given is binding. Conditions: methylviologen, thymine and host, D2O, heated. The procedure: 5.0 mM of methylviologendichloride solution, and 5.0 mM of thymine solution were prepared using D2O solvent. 0.25 ml of each solution was mixed with 2.1 mg of cucurbit[8]uril. Next, the mixture was heated until the color changed into yellow.

A short description of assay [4]: Ternary complex formation, amino acid sensing (NMR). The class given is binding. Conditions: methylviologen, tryptophan and host, D2O, heated. The method, then:
5.0 mM of methylviologendichloride solution, and 5.0 mM of tryptophan solution were prepared using D2O solvent. 0.25 ml of each solution was mixed with 2.1 mg of cucurbit[8]uril. Next, the mixture was heated until the color changed into red.

Assay [5] in a line: Complex formation with herbicide (NMR). Type of assay: binding. Conditions: methylviologen and host, D2O. The method, then:
Methylviologendichloride (so-called paraquat), a herbicide, was used. 5.0 mM of mehylbiologendichloride solution was prepared with D2O solvent. Next, cucurbit[8]uril was added to the solution.

The nature of assay [6]: Inclusion complex formation in water. The class given is binding. As to conditions: guest cyclen, heating then slow cooling. The method, then:
120.0 mg of cyclen tetrahydrochloride ([…] tetrahydrochloride) and 100.0 mg of cucurbit[8]uril were dissolved in water.

Assay [7] can be described thus: Inclusion complex formation in water. The class given is binding. As to conditions: guest cyclam, heating then slow cooling. The method, then: 13.0 mg of cyclam tetrahydrochloride (1,4,8,11-tetraazacyclotetradecane tetrahydrochloride) and 10.0 mg of cucurbit[8]uril were dissolved in water.
Assay [8] can be described thus: Ternary complex formation, amino acid sensing (NMR). Type of assay: binding. As to conditions: methylviologen, tyrosine and host, D2O, heated. The method, then: 5.0 mM of methylviologendichloride solution, and 5.0 mM of tyrosine solution were prepared using D2O solvent. 0.25 ml of each solution was mixed with 2.1 mg of cucurbit[8]uril. Next, the mixture was heated until the color changed into yellow.

A short description of assay [9]: Host-guest complex formation in water (NMR). The class given is binding. As to conditions: guest 2,6-Bis(4,5-dihydro-1H-imidazol-2-yl)naphthalene dihydrochloride. The method, then: 5.80 mg of 2,6-Bis(4,5-dihydro-1H-imidazol-2-yl)naphthalene dihydrochloride and 5.0 mg of cucurbit[8]uril were dissolved in water.
4.35 mg of 2,6-Bis(4,5-dihydro-1H-imidazol-2-yl)naphthalene dihydrochloride and 5.0 mg of cucurbit[7]uril were dissolved in water.

The nature of assay [10]: Inclusion complex formation in water. The class given is binding. Conditions: guest 1-aminoadamantane, addition of methanol. The procedure: 24.2 mg of 1-aminoadanmatane hydrochloride and 50.0 mg of cucurbi[7]uril were dissolved in water.
Assay [11] can be described thus: Organic dye removal from water, UV absorption of filtrate. The procedure: 30 mg of organic dye, Direct Red 5B (commercially available from Ciba-Geigy Co.) was dissolved in 150 ml of water to prepare an organic dye solution. To half the organic dye solution, 150 mg of cucurbit[7]uril was added and stirred for 30 minutes.
The precipitate was filtered, and UV absorption spectra were measured at λmax=510 nm on the filtrate and the remaining half of the organic dye solution which was not treated with the cucurbut[7]uril.
R=UV absorption intensity of the dye solution treated with cucurbit[7]uril ×100/UV absorption intensity of the dye solution before the treatment with cucurbit[7]uril.
The following dyes were used: Reactive Blue HE-G (produced by Kyung-In Co.), Direct Solophenyl Violet 4BL (produced by Ciba-Geigy Co.), Reactive Navy Blue HE-R 150 (produced by Kyung-In Co.), Disperse Yellow E-3 (produced by LG Co.), Disperse T/Q Blue S-GL (produced by LG Co.) and Orange TGL (produced by Ciba-Geigy Co.).

On to `O=C1N2CN3C(=O)N4CN5C(=O)N6CN7C(=O)N8CN9C(=O)N%10CN1C1C2N2CN%11C(=O)N(CN%12C(=O)N(CN%13C(=O)N(CN%14C(=O)N(CN1C2=O)C%10C9%14)C8C7%13)C6C5%12)C4C3%11` (stereo not shown) [cucurbit[5]uril], for which, in assay [1], the “binding constant with ammonium ions” value came to 5400 M⁻¹, the “binding constant with positive lithium ions” value stood at 330 M⁻¹, the “binding constant with positive potassium ions” value came to 26000 M⁻¹ and the “binding constant with positive sodium ions” value came to 4500 M⁻¹.
As for `O=C1N2CN3C(=O)N4CN5C(=O)N6CN7C(=O)N8CN9C(=O)N%10CN%11C(=O)N%12CN%13C(=O)N%14CN%15C(=O)N%16CN1C1C2N2CN%17C(=O)N(CN%18C(=O)N(CN%19C(=O)N(CN%20C(=O)N(CN%21C(=O)N(CN%22C(=O)N(CN%23C(=O)N(CN1C2=O)C%16C%15%23)C%14C%13%22)C%12C%11%21)C%10C9%20)C8C7%19)C6C5%18)C4C3%17` (stereo not shown) [cucurbit[8]uril], in assay [2], the “complex formation and stoichiometry (platinum compound : host)” value is “quantitative formation of a 2:1 complex”. Further, the “complex formation and stoichiometry” value in [3] is reported as “quantitative formation of a 1:1:1 complex”; in assay [4], “quantitative formation of a 1:1:1 complex”; in assay [5] it was “quantitative formation of a 1:1 complex”; in [8], “quantitative formation of a 1:1:1 complex”. Moreover, the inclusion complex formation entry in assay [6] and in assay [7] was “produced an inclusion complex” in each case. Also, the “host-guest complex formation and stoichiometry” value in assay [9] is on record as “quantitative formation of a 1:2 host-guest complex”.
As to cucurbit[7]uril, the inclusion complex formation result in assay [10] is on record as “produced an inclusion complex”. The R in [11] (Direct Red 5B, 510 nm, R = intensity after treatment ×100 / intensity before) is 1.7%; in [11] (Direct Solophenyl Violet 4BL, 546 nm, R = intensity after ×100 / before), 1.3%; in assay [11] (Disperse T/Q Blue S-GL 200, 776 nm, R = intensity after ×100 / before) it was 0.8%; in assay [11] (Disperse Yellow E-3, 429 nm, R = intensity after ×100 / before), 3.0%; in [11] (Orange TGL, 419 nm, R = intensity after ×100 / before) it was 5.4%; in [11] (Reactive Blue HE-G, 626 nm, R = intensity after ×100 / before), 0.3%. In addition, the R in [11] (Reactive Blue HE-G, 662 nm, R = intensity after ×100 / before) was found to be 0.3%; in assay [11] (Reactive Navy Blue HE-R 150, 609 nm, R = intensity after ×100 / before) it was 0.6%. In addition, the “host-guest complex formation and stoichiometry” value in [9] was “quantitative formation of a 1:1 host-guest complex”.
